Test systems include OVCAR-5 ovarian; HS 578T breast; SK-MEL-2 melanoma; SW-620 colon; MALME-3M melanoma; M14 melanoma; A549 NSCLC; MDA-MB-435.
Common to all, as to experiment: NCI tumour cell line growth inhibition, 48 h

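Protocol summary: plate cells (96-well), add compound at 5 concentrations, incubate 48 h, interpolate endpoints linearly. Here, GI50 denotes the concentration required for 50% inhibition of growth. TGI: total growth inhibition.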

On to `CC(O)CN(CCN(CC(C)O)CC(C)O)CC(C)O.O=[N+]([O-])O.[Cu+2]` (stereo not drawn), for which the GI50 in the test with OVCAR-5 ovarian, with HS 578T breast, in the test with SK-MEL-2 melanoma, with SW-620 colon, in the test with MALME-3M melanoma and in the test on M14 melanoma was above 100 µM each time. Moreover, the results for the GI50 in the test with A549 NSCLC and with MDA-MB-435 were 46.5 µM and above 100 µM, respectively. Moreover, the TGI in the test with OVCAR-5 ovarian, with HS 578T breast, with SK-MEL-2 melanoma, in the test with SW-620 colon, in the test on MALME-3M melanoma and in the test with M14 melanoma was above 100 µM each time. Besides, the TGI in the test with A549 NSCLC and in the test on MDA-MB-435 was above 100 µM in each case.
Take `O=Nc1c(-c2cccc([N+](=O)[O-])c2)nc2ncccn12`: the GI50 in the test with OVCAR-5 ovarian was 18.5 µM; with HS 578T breast it was 12.8 µM; in the test with SK-MEL-2 melanoma, 14.7 µM; in the test on SW-620 colon, 2.08 µM; in the test with MALME-3M melanoma, 14.5 µM; in the test with M14 melanoma, 12 µM. The GI50 in the test on A549 NSCLC was 21.8 µM; in the test on MDA-MB-435 it was 13.7 µM. The TGI in the test on OVCAR-5 ovarian was 39.1 µM; in the test with HS 578T breast, 47.4 µM; in the test with SK-MEL-2 melanoma, 38.1 µM; in the test with SW-620 colon it was 6.03 µM; with MALME-3M melanoma, 29.1 µM; in the test with M14 melanoma it was 26.8 µM. The TGI in the test on A549 NSCLC was determined as 56.9 µM; in the test on MDA-MB-435, 36.4 µM.
On to `COC(=O)c1oc2c(C(=O)/C=C/c3ccc(OC)cc3)c(OCCCN3CCCCC3)ccc2c1C`, for which the GI50 in the test with OVCAR-5 ovarian is 2.31 µM; in the test with HS 578T breast it was 2.58 µM; with SK-MEL-2 melanoma it was 1.87 µM; in the test with SW-620 colon, 1.38 µM; in the test on MALME-3M melanoma it was 1.51 µM; with M14 melanoma, 1.61 µM. The GI50 was 2.04 µM in the test with A549 NSCLC and 1.67 µM in the test with MDA-MB-435. In addition, the TGI in the test on OVCAR-5 ovarian was found to be 6.17 µM; in the test with SK-MEL-2 melanoma it was 7.65 µM; in the test with SW-620 colon it was 3.03 µM; in the test with MALME-3M melanoma, 3.3 µM; in the test with M14 melanoma, 3.59 µM; in the test on A549 NSCLC it was 5.28 µM. The TGI in the test on MDA-MB-435 was determined as 3.68 µM.
Consider `Fc1ccc(Nc2nc(Nc3ccc(-c4nc5ccccc5[nH]4)cc3)nc(N3CCCC3)n2)cc1`, for which the GI50 in the test on OVCAR-5 ovarian was 2.93 µM; with HS 578T breast it was 2.16 µM; with SK-MEL-2 melanoma, 13 µM; with SW-620 colon it was 1.87 µM; in the test on MALME-3M melanoma, 2.17 µM; with M14 melanoma it was 1.89 µM. The values for the GI50 in the test on A549 NSCLC and with MDA-MB-435 were 3.07 µM and 3.38 µM, respectively. Further, the TGI in the test on OVCAR-5 ovarian is 8.19 µM; in the test on HS 578T breast, 5.82 µM; in the test with SK-MEL-2 melanoma, 28 µM; in the test with SW-620 colon, 3.7 µM; in the test with MALME-3M melanoma it was 4.81 µM; with M14 melanoma, 3.95 µM. The TGI came out at 9.1 µM in the test with A549 NSCLC and 11.3 µM in the test on MDA-MB-435.
In the case of `CCOC1NC(=O)Oc2ccccc21` (stereo not drawn), the TGI with OVCAR-5 ovarian, with HS 578T breast, in the test on SK-MEL-2 melanoma, with SW-620 colon, in the test with MALME-3M melanoma and with M14 melanoma was above 100 µM in each case. The TGI in the test on A549 NSCLC and in the test on MDA-MB-435 was above 100 µM throughout.
Turning to `C[n+]1c2ccccc2c(NC2CCNCC2)c2[nH]c3ccccc3c21`, the GI50 in the test on OVCAR-5 ovarian is 1.76 µM; in the test with HS 578T breast it was 0.116 µM; with SK-MEL-2 melanoma, 0.207 µM; with SW-620 colon, 1.23 µM; in the test with MALME-3M melanoma it was 1.35 µM; with M14 melanoma, 2.41 µM. Moreover, the GI50 was 0.0812 µM with A549 NSCLC and 2.33 µM in the test with MDA-MB-435. Besides, the TGI was determined as 17.6 µM in the test with OVCAR-5 ovarian; 0.82 µM in the test with HS 578T breast; 1.22 µM with SK-MEL-2 melanoma; 6.73 µM in the test with SW-620 colon; 3.55 µM in the test on MALME-3M melanoma; 13.4 µM in the test on M14 melanoma. For the same compound, the TGI with A549 NSCLC was found to be 2.73 µM; with MDA-MB-435, 8.42 µM.
Take `CC(C)[C@]12O[C@H]1[C@@H]1O[C@]13[C@]1(O[C@H]1C[C@H]1c4c(C(=O)c5ccccc5)oc(OC(=O)c5ccccc5)c4CC[C@@]13C)[C@@H]2O`: the GI50 with OVCAR-5 ovarian is 0.0401 µM; with HS 578T breast, 0.0303 µM; in the test on SK-MEL-2 melanoma, 0.0252 µM; in the test on SW-620 colon, 0.0179 µM; in the test with MALME-3M melanoma it was 0.0189 µM; in the test with M14 melanoma, 0.0236 µM. The GI50 with A549 NSCLC was 0.059 µM; in the test with MDA-MB-435, 0.0151 µM. Further, the TGI in the test on OVCAR-5 ovarian is above 100 µM; with HS 578T breast, 0.996 µM; with SK-MEL-2 melanoma, 0.0781 µM; in the test on SW-620 colon, 3.89 µM; in the test on MALME-3M melanoma, 0.0498 µM; with M14 melanoma, 0.0688 µM. Besides, the TGI in the test with A549 NSCLC is above 62.4 µM; in the test on MDA-MB-435, 0.0366 µM.
Regarding `CO/N=C1/c2cc(OC)ccc2-c2c(NOC)nc3ccccc3c21`, the GI50 is 22 µM in the test on OVCAR-5 ovarian; 18 µM with HS 578T breast; 24.7 µM with SK-MEL-2 melanoma; 60.1 µM with SW-620 colon; 0.103 µM with MALME-3M melanoma; above 100 µM in the test on M14 melanoma. The GI50 in the test on A549 NSCLC is 16 µM; in the test with MDA-MB-435, above 100 µM. Moreover, the TGI in the test on OVCAR-5 ovarian was 71.6 µM; in the test on HS 578T breast, 51 µM; in the test on SK-MEL-2 melanoma, 88.5 µM; in the test on SW-620 colon, above 100 µM; with MALME-3M melanoma it was 23.7 µM; in the test with M14 melanoma it was above 100 µM. Moreover, the values for the TGI in the test with A549 NSCLC and in the test on MDA-MB-435 were 37.3 µM and above 100 µM, respectively.
In the case of `O=C1c2cccnc2-c2nc(-c3ccc([N+](=O)[O-])cc3)cc3c2c1nc1ccccc13`, the GI50 was 12.5 µM in the test with OVCAR-5 ovarian; 4.1 µM in the test with HS 578T breast; 3.3 µM with SK-MEL-2 melanoma; 3.21 µM in the test with SW-620 colon; 2.15 µM in the test with MALME-3M melanoma; 1.9 µM with M14 melanoma. In addition, the GI50 with A549 NSCLC was 2.58 µM; in the test on MDA-MB-435, 1.69 µM. Further, the TGI came out at 27.5 µM with OVCAR-5 ovarian; 23.6 µM in the test on HS 578T breast; 26.5 µM with SK-MEL-2 melanoma; 15.6 µM with SW-620 colon; 6.32 µM in the test on MALME-3M melanoma; 4.43 µM in the test with M14 melanoma. The TGI amounted to 8.3 µM with A549 NSCLC and 3.06 µM with MDA-MB-435.
On to `COc1ccc(Cc2ccccc2C(=O)O)c2ccccc12`, for which the TGI in the test on OVCAR-5 ovarian is 59.6 µM; in the test on HS 578T breast, 57.8 µM; in the test on SK-MEL-2 melanoma it was 54.5 µM; in the test with SW-620 colon, above 100 µM; in the test on MALME-3M melanoma it was 59.3 µM; with M14 melanoma it was above 100 µM. For the same compound, the figures for the TGI in the test on A549 NSCLC and in the test with MDA-MB-435 were above 100 µM and 54.8 µM, respectively.

Values taken from PubChem BioAssay (NCI).
